In brackets after ≈: the same amount, converted by molar mass. Several values for one entry are separate records, joined by “and”; a condition that tells them apart may be missing. Identical values can stand only once.
Experiments:
Type in all cases: cell-based
[1] = test system: HIV-1 92/HT/599; assay: HIV-1 92/HT/599 replication in human PBMCs, reverse transcriptase in culture supernatants (RLU); details: TC/EC at 95%
Experimental: (§1) In these studies, PHA-P stimulated PBMCs from three donors were pooled together and re-suspended in fresh tissue culture medium at 1×10^6 cells/mL and plated in the interior wells of a 96 well round bottom microplate at 50µl/well. A 100µL volume of 9 concentrations of compound serially diluted were transferred to the round-bottom 96 well plate containing the cells in triplicate. Fifty microliters (µL) of HIV-1 at a pre-determined dilution was added. Each plate contained cell control wells and virus control wells in parallel with the experimental wells. After 7 days in culture, efficacy was evaluated by measuring the reverse transcriptase in the culture supernatants and the cells were stained with the tetrazolium dye XTT to evaluate cytotoxicity.

[2] = Toxicity in PBMC (Cell Titer 96); details: human, peripheral blood mononuclear cells (PBMC); PBMC, Cell Titer 96
Excerpt: (§2) These compounds were further screened for activity in HIV-1-infected peripheral blood mononuclear cells (PBMC). The data (experiments were repeated, so duplicates are shown) is summarized in the tables below, and also in FIGS. 4A-B and 5A-B.

[3] = test system: PBMC; assay: Toxicity in PBMC (Cell Titer 96); details: for % CC: O.D. relative to cell control; for TOXICITY VALUES (Cell Titer 96 - O.D. @ 490/650 nm), SAMPLE: individual samples
Excerpt: as §2

[4] = test system: HUMAN PBMCS; assay: Cytotoxicity in human PBMCs (XTT); details: for TOXICITY VALUES (XTT - O.D. @ 450/650 nm), SAMPLE: individual samples, listed as Trana 156
Experimental: as §1

In the case of `CC1(C)OC(=O)C(=Cc2ccc(I)o2)C(=O)O1` [HIT #156], the “Therapeutic Index (TI) 95%” value [1] is reported as <10.18, the CC50 [2] is reported as > 100 µM and the “% CC” value ([3]; 0.01 μM) is reported as 110.7% and 108.3%. For the same compound, the “TOXICITY VALUES (Cell Titer 96 - O.D. @ 490/650 nm), SAMPLE” value ([3]; 0.01 μM) was 2.344 O.D. and 1.718 O.D. and 1.852 O.D. and 0.687 O.D. and 1.030 O.D. and 0.777 O.D, the “% CC” value ([3]; 0.03 μM) was 111.8% and 118.7% and the “TOXICITY VALUES (Cell Titer 96 - O.D. @ 490/650 nm), SAMPLE” value ([3]; 0.03 μM) was 2.336 O.D. and 1.807 O.D. and 1.831 O.D. and 0.821 O.D. and 1.115 O.D. and 0.798 O.D. For the same compound, the “TOXICITY VALUES (Cell Titer 96 - O.D. @ 490/650 nm), MEAN” value (“TOXICITY VALUES … MEAN” for short) ([3]; 0.10 μM) was 1.952 O.D. and 0.991 O.D, the “% CC” value ([3]; 0.10 μM) was 109.6% and 129.1% and the “TOXICITY VALUES (Cell Titer 96 - O.D. @ 490/650 nm), SAMPLE” value ([3]; 0.10 μM) was 2.142 O.D. and 1.855 O.D. and 1.858 O.D. and 1.098 O.D. and 1.053 O.D. and 0.822 O.D. The “TOXICITY VALUES … MEAN” value ([3]; 0.32 μM) was 1.937 O.D. and 1.031 O.D, the “% CC” value ([3]; 0.32 μM) was 108.8% and 134.3% and the “TOXICITY VALUES (Cell Titer 96 - O.D. @ 490/650 nm), SAMPLE” value ([3]; 0.32 μM) was 2.234 O.D. and 1.808 O.D. and 1.768 O.D. and 1.094 O.D. and 1.234 O.D. and 0.765 O.D. For the same compound, the “TOXICITY VALUES … MEAN” value ([3]; 1.00 μM) was 1.882 O.D. and 1.010 O.D, the “% CC” value ([3]; 1.00 μM) was 105.7% and 131.5% and the “TOXICITY VALUES (Cell Titer 96 - O.D. @ 490/650 nm), SAMPLE” value ([3]; 1.00 μM) was 2.065 O.D. and 1.819 O.D. and 1.762 O.D. and 1.173 O.D. and 1.067 O.D. and 0.789 O.D. For the same compound, the “TOXICITY VALUES … MEAN” value ([3]; 3.16 μM) was 1.914 O.D. and 1.060 O.D, the “% CC” value ([3]; 3.16 μM) was 107.5% and 138.1% and the “TOXICITY VALUES (Cell Titer 96 - O.D. @ 490/650 nm), SAMPLE” value ([3]; 3.16 μM) was 2.179 O.D. and 1.770 O.D. and 1.792 O.D. and 1.161 O.D. and 1.175 O.D. and 0.845 O.D. The “TOXICITY VALUES … MEAN” value ([3]; 10.0 μM) was 1.924 O.D. and 0.976 O.D, the “% CC” value ([3]; 10.0 μM) was 108.1% and 127.1% and the “TOXICITY VALUES (Cell Titer 96 - O.D. @ 490/650 nm), SAMPLE” value ([3]; 10.0 μM) was 2.172 O.D. and 1.791 O.D. and 1.810 O.D. and 1.001 O.D. and 0.993 O.D. and 0.934 O.D. For the same compound, the “TOXICITY VALUES … MEAN” value ([3]; 31.6 μM) was 1.891 O.D. and 0.979 O.D, the “% CC” value ([3]; 31.6 μM) was 106.2% and 127.5% and the “TOXICITY VALUES (Cell Titer 96 - O.D. @ 490/650 nm), SAMPLE” value ([3]; 31.6 μM) was 2.078 O.D. and 1.741 O.D. and 1.855 O.D. and 0.997 O.D. and 1.014 O.D. and 0.926 O.D. The “TOXICITY VALUES … MEAN” value ([3]; 100 μM) was 1.613 O.D. and 0.847 O.D, the “% CC” value ([3]; 100 μM) was 90.6% and 110.3% and the “TOXICITY VALUES (Cell Titer 96 - O.D. @ 490/650 nm), SAMPLE” value ([3]; 100 μM) was 1.651 O.D. and 1.594 O.D. and 0.795 O.D. and 0.787 O.D. and 0.978 O.D. The “TC 90%” value ([3]; PBMC, Cell Titer 96) was >100 µM, the “TC 95%” value ([3]; PBMC, Cell Titer 96) was >100 µM and the “% Cell Viability” value ([4]; 0.32 μg/ml) was 97.66%. The “Cytotoxicity Test Values Mean OD @ 450/650 nm” value ([4]; 0.32 μg/ml) was 1.094 OD, the “TOXICITY VALUES (XTT - O.D. @ 450/650 nm), SAMPLE” value ([4]; 0.32 μg/ml) was 1.0465 O.D. (2×) and 1.1893 O.D and the “% Cell Viability” value ([4]; 1 μg/ml) was 99.50%. The “Cytotoxicity Test Values Mean OD @ 450/650 nm” value ([4]; 1 μg/ml) was 1.115 OD, the “TOXICITY VALUES (XTT - O.D. @ 450/650 nm), SAMPLE” value ([4]; 1 μg/ml) was 1.1281 O.D. (2×) and 1.0879 O.D and the “% Cell Viability” value ([4]; 3.16 μg/ml) was 87.52%. The “Cytotoxicity Test Values Mean OD @ 450/650 nm” value ([4]; 3.16 μg/ml) was 0.980 OD, the “TOXICITY VALUES (XTT - O.D. @ 450/650 nm), SAMPLE” value ([4]; 3.16 μg/ml) was 0.9762 O.D. (2×) and 0.9889 O.D and the “% Cell Viability” value ([4]; 9.99 μg/ml) was 89.00%. The “Cytotoxicity Test Values Mean OD @ 450/650 nm” value ([4]; 9.99 μg/ml) was 0.997 OD, the “TOXICITY VALUES (XTT - O.D. @ 450/650 nm), SAMPLE” value ([4]; 9.99 μg/ml) was 1.1309 O.D. (2×) and 0.7293 O.D and the “% Cell Viability” value ([4]; 31.6 μg/ml) was 12.90%. The “Cytotoxicity Test Values Mean OD @ 450/650 nm” value ([4]; 31.6 μg/ml) was 0.145 OD, the “TOXICITY VALUES (XTT - O.D. @ 450/650 nm), SAMPLE” value ([4]; 31.6 μg/ml) was 0.1469 O.D. (2×) and 0.1399 O.D and the “% Cell Viability” value ([4]; 100 μg/ml) was 14.76%. The “Cytotoxicity Test Values Mean OD @ 450/650 nm” value ([4]; 100 μg/ml) was 0.165 OD, the “TOXICITY VALUES (XTT - O.D. @ 450/650 nm), SAMPLE” value ([4]; 100 μg/ml) was 0.1657 O.D. (2×) and 0.1646 O.D and the “TC 25%” value ([4]; human PBMCs, XTT) was 12.3 µg/mL (≈ 35.3 µM). For the same compound, the “TC50 (TC 50%)” value ([4]; human PBMCs, XTT) was 18.0 µg/mL (≈ 51.7 µM) and the “TC 95%” value ([4]; human PBMCs, XTT) was <100 µg/mL.
